Measured values from PubChem BioAssay AID624167 (Sanford-Burnham Center for Chemical Genomics, 2012).
Calls of active or inactive are those of the source.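 The calls were made as follows: active = mean IC50 for reducing PEG3 promoter reporter signal at or below a set limit, with IC50 above the limit in both counter screens; inactive = the rest, including counter screen hits.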

Columns and labels:
[1] = system: PEG-3; experiment: inhibition of PEG-3 promoter-driven reporter – cell-based, HeLa, luciferase, CREF/GAPDH counter-screen panel, dose response (AID 624167); settings: HeLa PEG-Prom luciferase reporter, overnight, CREF/GAPDH counter-screens
[2] = molecular target: PEG-3 (UniProt Q6IN02); experiment: as above; settings: HeLa PEG-Prom luciferase reporter, overnight, CREF/GAPDH counter-screens, mean of runs
[3] = run 1, dose range 1, individual replicate IC50 per panel
[4] = run 2, dose range 1, individual replicate IC50 per panel

Chain of PEG-3 (UniProt Q6IN02) (Q6IN02 whole entry, looked up): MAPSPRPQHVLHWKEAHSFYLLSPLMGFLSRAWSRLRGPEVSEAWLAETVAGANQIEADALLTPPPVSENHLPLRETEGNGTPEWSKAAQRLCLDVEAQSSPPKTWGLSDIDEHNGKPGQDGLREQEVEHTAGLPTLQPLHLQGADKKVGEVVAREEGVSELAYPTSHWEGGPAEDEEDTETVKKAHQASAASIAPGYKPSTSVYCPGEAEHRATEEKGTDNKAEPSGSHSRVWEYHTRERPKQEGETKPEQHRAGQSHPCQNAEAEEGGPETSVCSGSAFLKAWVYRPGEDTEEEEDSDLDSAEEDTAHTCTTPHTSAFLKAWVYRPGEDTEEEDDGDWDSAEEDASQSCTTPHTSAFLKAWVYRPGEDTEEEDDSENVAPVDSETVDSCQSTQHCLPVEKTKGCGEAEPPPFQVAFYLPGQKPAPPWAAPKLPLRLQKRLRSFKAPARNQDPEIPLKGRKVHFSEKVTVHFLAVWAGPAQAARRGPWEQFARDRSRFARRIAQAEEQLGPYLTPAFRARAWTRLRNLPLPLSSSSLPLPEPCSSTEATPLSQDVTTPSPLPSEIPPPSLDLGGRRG

| SMILES | IC50 [1, 3] [µM] | IC50 [1, 4] [µM] | IC50 [2] |
| --- | --- | --- | --- |
| O=[N+]([O-])c1cc(F)c(N2CCCCCC2)cc1N1CCNCC1 | 18.9 | 12.5 | 15.7 µM |
| CCCc1cc(=O)n2[nH]c(C)c(-c3ccc(Cl)cc3)c2n1 | 14 | 11.8 | 12.9 µM |
| COc1ccc(CNCCc2c(C)[nH]c3ccc(OC(F)(F)F)cc23)c(OC)c1 | 13.6 | 13.1 | 13.4 µM |
| O=S(=O)(/N=C(/Sc1ccccc1)c1ccccc1)c1ccccc1 | 28.9 | 19.1 | inactive |
| COc1ccc2sc(N(CCCN(C)C)C(=O)c3ccc(S(=O)(=O)N4CCCc5ccccc54)cc3)nc2c1 | 20.7 | 21.8 | inactive |
| N=c1n(CCN2CCCC2)c2ccccc2n1CC(O)c1ccc(Cl)c(Cl)c1 (centres undefined) | 17.7 | 9.03 | 13.4 µM |
| Cn1nnnc1Sc1ncnc2scc(-c3ccsc3)c12 | 14.7 | 8.36 | 11.5 µM |
| CC1(C(=O)NCc2cccc3ccccc23)CCN1C(=O)Cc1ccc(-c2ccccc2)cc1 (centres undefined) | 10.3 | > 100 | inactive |
| Cc1ccc(-c2nnc(N3CCN(c4ccccn4)CC3)c3ccccc23)cc1 | 20.9 | 15.4 | 18.2 µM |
| COc1ccc(CN(C)C(=O)C(Cc2ccccc2)NC(=O)c2ccccc2)cc1F (centres undefined) | 60.5 | 65.3 | inactive |
| CN(C)CCNc1ccc2ncn3c4ccc(O)cc4c(=O)c1c23 | 54 | < 0.2 | inactive |
| COc1ccc(C(c2nnnn2-c2c(C)cccc2C)N2CCC(n3c(=O)[nH]c4ccccc43)CC2)cc1 (centres undefined) | 11.4 | 11.3 | 11.3 µM |
| O=Cc1cn(Cc2cccc(F)c2)c2ccccc12 | 22.6 | 38.8 | inactive |
| COc1ccc(C2NCCc3c2[nH]c2ccccc32)cc1COc1ccc(F)cc1 (centres undefined) | 16.9 | 7.75 | 12.3 µM |
| CN(C)CCNC(=O)c1sc2nc(-c3ccccc3)cc(C(F)(F)F)c2c1N | 20.5 | 19.8 | inactive |
| COc1ccc(NS(=O)(=O)c2ccc3ccccc3c2)c2ncccc12 | 13.5 | 21.6 | 17.6 µM |
| CNCC(O)c1cc(OCc2ccccc2)c(OCc2ccccc2)cc1F (centres undefined) | 20.8 | 16.3 | 18.5 µM |
| Cn1cc(CN2CCCC(C(=O)Nc3ccc(-c4cccc(F)c4)cc3)C2)cn1 (centres undefined) | 19.6 | 29.8 | inactive |
| O=C(Nc1ccc2oc(-c3ccncc3)nc2c1)c1ccc([N+](=O)[O-])o1 | 15.9 | 6.56 | 11.2 µM |
| CN(C)S(=O)(=O)c1cccc(NC(=O)CSc2nc3c(cc2C#N)C(=O)CC(C)(C)C3)c1 | 21.6 | 19.6 | inactive |
| O=C1NC(=S)N(c2ccccc2F)C(=O)/C1=C\c1cccs1 | 19.1 | 14.2 | 16.7 µM |
| CC(C)(C)c1ccc(OCCCNCc2ccccc2)cc1 | 28.8 | 18.3 | inactive |
| CN(C)CCNc1ccc2nnn3c4ccc(O)cc4c(=O)c1c23 | 45.4 | 43 | inactive |

| SMILES | IC50 [1, 3] [µM] | IC50 [1, 4] [µM] | IC50 [2] |
| --- | --- | --- | --- |
| N=c1c2c(-c3ccccc3)c(-c3ccccc3)n(Cc3ccccc3)c2ncn1CCO | 18.8 | 10.6 | 14.7 µM |
| O=C(CCCN1C(=O)/C(=C/c2cccc(Br)c2)SC1=S)Nc1cccnc1 | 15.1 | 12.1 | 13.6 µM |
| CCOC(=O)c1c(NC(=O)COc2ccccc2F)sc2c1CC(C)(C)NC2(C)C | 17.6 | 35 | inactive |
| Cn1cccc1/C=C1/C(=O)NC(=S)N(Cc2ccc(F)cc2)C1=O | 31.9 | 38.1 | inactive |
| Cc1ccc(C2=NC(=O)/C(=C/c3cc(O)c(O)c(Br)c3)S2)cc1 | 17.1 | 27.1 | inactive |
| COc1ccc(-n2nnnc2C(C2CC2)N2CCC(n3c(=O)[nH]c4ccccc43)CC2)cc1 (centres undefined) | 58.3 | 14.7 | inactive |
| O=C(c1ccccc1)N(C(=O)c1ccccc1)c1ncnc2c1C(c1ccccc1)c1c(ccc3ccccc13)O2 (centres undefined) | 4.36 | > 100 | inactive |
| O=C(CN1CCN(Cc2ccccc2Cl)CC1)N=Nc1c(O)[nH]c2ccccc12 | 5.23 | > 100 | inactive |
| O=C(Sc1cccc2cccnc12)c1ccccc1Br | 14 | 12.9 | 13.4 µM |
| COc1ccccc1CCNC(=O)C1CCN(c2nnc(C)c3c(C)n(-c4ccc(C)cc4)nc23)CC1 | 19.4 | 24.1 | inactive |
| CN(C)S(=O)(=O)c1cccc(NC(=O)CSc2cccc3cccnc23)c1 | 23.7 | 19.6 | inactive |
| CCn1cc(CN2CCC(C(=O)Nc3cccc(-c4cccc(Cl)c4)c3)CC2)c(C)n1 | 17.7 | 11.2 | 14.5 µM |
| CCCc1nc(SCC(=O)N2CCCc3ccccc32)c2c(=O)n(C)c(=O)n(C)c2n1 | 49 | 38.2 | inactive |
| COc1cccc(/C=N/Nc2cc(C)nc(-c3ccccc3O)n2)c1O | 12.5 | 13.6 | 13 µM |
| CC1CCCC(C)N1C(=C(Cl)Cl)C(=C1SCCS1)[N+](=O)[O-] (centres undefined) | 11.5 | 16.6 | 14 µM |
| CCN(CC)CCNc1cccc2sc3ccccc3c(=O)c12 | 18.3 | 25.6 | inactive |
| O=S(=O)(CC(CN1CCCCC1)N1CCCCC1)c1ccccc1 (centres undefined) | 38.2 | 18.2 | inactive |
| O=C(/C=C/c1cc(Br)ccc1O)c1ccco1 | 16.1 | 8.44 | 12.3 µM |
| O=C1C(Cl)=C(Nc2ccc(O)cc2)C(=O)c2ccccc21 | 16.1 | 7.05 | 11.6 µM |
| CN1CCN(CCNC(=O)c2ccc3nc(-c4ccc(F)cc4)c(-c4ccc(F)cc4)nc3c2)CC1 | 19.4 | 11.3 | 15.4 µM |
| COc1cc(N=Nc2c(O)c3ccccc3[nH]c2=O)c(OC)cc1N=Nc1ccccc1 | > 100 | > 100 | > 100 µM (inactive) |
| O=C(CCl)Nc1cccc(-c2cnc3ccccc3n2)c1 | > 100 | 13.2 | inactive |
| COC(=O)c1ccccc1-c1ccc(/C=N/Nc2nc(N3CCCC3)nc(N3CCCC3)n2)o1 | 26.8 | 34.7 | inactive |

| SMILES | IC50 [1, 3] [µM] | IC50 [1, 4] [µM] | IC50 [2] |
| --- | --- | --- | --- |
| Cc1ccc(C2(CCNCc3ccc(N(C)C)cc3)CCOC(C(C)C)C2)cc1 (centres undefined) | 25.9 | 21.3 | inactive |
| CCCCCc1ccc(OCCCC[n+]2cccc(C)c2)c(CCCCC)c1 | 16.4 | 10.7 | 13.6 µM |
| CN(C)CCCN(C(=O)c1ccc(S(=O)(=O)N(C)Cc2ccccc2)cc1)c1nc2cc3c(cc2s1)OCO3 | 19.3 | 13.6 | 16.4 µM |
| CC(C)CC(N)c1csc(Nc2ccc(C(=O)c3ccccc3)cc2)n1 (centres undefined) | 31.1 | 29.8 | inactive |
| O=C(NC(c1ccc(F)cc1)c1ccc2ccccc2n1)C1CCN(Cc2cccc(C(F)(F)F)c2)CC1 (centres undefined) | 16.2 | 7.91 | 12.1 µM |
| O=c1[nH]c(=O)n(C2OC(CO)C(O)C2O)cc1F (centres undefined) | 25.6 | 3.07 | 14.3 µM |
| Cc1ccc(C(=O)N/C(=C\c2ccc(-c3cccc([N+](=O)[O-])c3)o2)C(=O)NCCCN(C)C)cc1 | 18.6 | 15.3 | 17 µM |
| COc1ccc2sc(-c3ccc(S(C)(=O)=O)cc3)c(C#Cc3cncn3C)c2c1 | 21.2 | > 100 | inactive |
| O=C(CSc1nc(Nc2ccccc2)nc(N2CCOCC2)n1)Nc1cc(Cl)ccc1O | 13 | 14.5 | 13.7 µM |
| COc1ccccc1N(C(=O)CCl)c1cn(C(C)=O)c2ccccc12 | 24.1 | 26.5 | inactive |
| CCCCCCCCCC[N+](C)(C)CC/C=C1/c2ccccc2Sc2ccc(Cl)cc21 | 14.9 | 8.43 | 11.7 µM |
| Cc1nc(-c2ccc(F)cc2)c(CC(=O)N(C)CC(=O)Nc2ccc(Cl)c(C(F)(F)F)c2)s1 | 26 | 33.8 | inactive |
| O=C(CN1CCCC1)Nc1ccc(-c2nc3cc(NC(=O)CN4CCCC4)ccc3o2)cc1 | > 100 | > 100 | > 100 µM (inactive) |
| Cc1ccc2cccc(OCC(=O)Nc3cccc(S(=O)(=O)N4CCCC4)c3)c2n1 | 22.3 | 33.9 | inactive |
| O=C(NC1CCCCC1)Sc1ccc(Cl)cc1 | 30.7 | 19.3 | inactive |
| c1ccc(CCNc2nc(-c3ccncc3)nc3ccccc23)cc1 | 17.7 | 8.58 | 13.1 µM |
| N#Cc1cc2c(nc1SC1CC(=O)N(c3ccccc3)C1=O)CCC2 (centres undefined) | > 100 | 1.02 | inactive |
| O=S(=O)(Nc1cccc2ncccc12)c1cccs1 | 17.5 | 8.93 | 13.2 µM |
| CNCC[C@H](Oc1cccc2ccccc12)c1cccs1 | 18.8 | 16.6 | 17.7 µM |
| CN(C)CCc1cc2c(c3c1ccc1ccccc13)OCO2 | 16.9 | 11.2 | 14 µM |
| FC(F)Sc1ccc(NC(=S)NC(c2ccccc2)c2ccccc2)cc1 | 19.9 | 16 | 18 µM |
| COc1ccc(-c2cc(-c3ccc(F)cc3)nc(N3CCN(C)CC3)n2)cc1 | 21.6 | > 100 | inactive |
